Source: publication PMC11062899, “De novo development of small cyclic peptides that are orally bioavailable” (Nature Chemical Biology, 2023)

Biological target: human α-thrombin (Homo sapiens, UniProt P00734)
Assay: Sub-library screen for active and permeable cyclic peptides (PAMPA plus thrombin inhibition)
Format: biochemical
Details: crude, slopes normalized to DMSO; for Residual thrombin activity: Top sample: PAMPA acceptor well after 14 h, 5 μM donor; for Residual thrombin activity: Equilibrated sample: donor sample diluted to theoretical equilibrium (1 μM in assay)
Experimental: Linear dithiol peptides were synthesized in fritted 5-ml polypropylene syringes on a MultiPep RSi parallel peptide synthesizer (Intavis) by standard Fmoc-based solid-phase peptide synthesis on cysteamine 2-chlorotrityl resin (Sigma-Aldrich, 8.56000, 1.63 mmol g^−1 loading, 25 μmol scale) as described above with small changes. Amino acids (65 μmol, 2.6 eq.) were activated with HATU (63 μmol, 2.5 eq.) and NMM (145 μmol, 5.8 eq.) in 280 μl of DMF and 5 μl of NMP and let to react with the resin (25 μmol, 1 eq.) for 45 min. Couplings were performed twice for each amino acid. Resin was washed once with 800 μl of DMF, and unreacted amines were capped with 5% acetic anhydride and 6% 2,6-lutidine in 400 μl of DMF for 5 min. The resin was washed six times with 600 μl of DMF, and Fmoc protecting groups were removed by incubating the resin twice with 450 μl of a 20% piperidine solution in DMF for 5 min. The resin was washed six times with 600 μl of DMF before proceeding to the next coupling cycle. After completing the last coupling cycle, the resin was washed six times with […] of DCM. Peptide cleavage and ether precipitation were carried out as described above. After quantification with Ellman’s reagent, 1 μmol of each peptide was transferred in seven replicates to new Nunc 96-well DeepWell polypropylene plates and lyophilized. Peptides were cyclized as described above to afford 20 mM cyclic peptide stock solutions in DMSO containing 160 mM HEPES sodium salt. The amine on cyclic peptides was acylated with 5-chlorothiophene-2-carboxylic acid as follows. A 160 mM solution in 5-chlorothiophene-2-carboxylic acid was prepared in DMSO containing 160 mM HEPES sodium salt, and the acid was activated by mixing in equal volumes with a 160 mM HSTU solution in DMSO. Then, 10 μl of the activated carboxylic acid solutions and the cyclic peptide stocks were placed in Echo Qualified 384-well Low Dead Volume microplates (Labcyte), and 400 nl of cyclic peptide and 400 nl of HSTU-activated 5-chlorothiophene-2-carboxylic acid were transferred combinatorially to 384-well microplates (Greiner, 781076) using the Echo 650 acoustic liquid handler (Labcyte). Plates were centrifuged at 2,000 g for 2 min, and the reaction was allowed to proceed at room temperature for 8 h before addition of 39.2 μl of DMSO with a CERTUS FLEX liquid dispenser (Gyger). A volume of 25 μl of the resulting DMSO solutions was diluted with PBS buffer at pH 7.4 containing 5% DMSO in Nunc 96-well DeepWell polypropylene plates to afford 5 μM solutions of the acylated peptides.
The PAMPA plates were covered with a lid to avoid evaporation and incubated for 14 h at room temperature. Additionally, a diluted donor sample was prepared at the concentration representing theoretical maximum permeability (3 μM). Thereby, 30 μl of the donor sample before incubation was diluted with 20 μl of PBS buffer at pH 7.4 containing 5% DMSO. Volumes of 16 μl of each acceptor well and the diluted donor samples were transferred to a 384-well microplate (Greiner, 781076), and thrombin activity was measured as follows. Human α-thrombin (16 μl, 6 nM, Molecular Innovations) in assay buffer was dispensed into each well using a CERTUS FLEX liquid dispenser (Gyger), and plates were incubated at room temperature for 10 min. Then, 16 μl of a 150 μM fluorogenic thrombin substrate solution (Z-Gly-Gly-Arg-AMC, Bachem) in assay buffer containing 1% DMSO was added to each well, and thrombin inhibition was determined by measuring the fluorescent gain over time. Fluorescence intensity was measured on a Tecan Infinite M200 Pro microplate reader for 30 min at 25 °C with a fluorescent readout every 3 min (excitation: 360 nm, emission: 465 nm). Protease inhibition was calculated by comparing the enzymatic activity to a control without cyclic peptide.

| Residual thrombin activity: Top sample | Residual thrombin activity: Equilibrated sample | SMILES |
| --- | --- | --- |
| 84.2 | 63.6 | Cc1cccc(C[C@@H]2NC(=O)[C@@H](NC(=O)c3ccc(Cl)s3)CCCSC/C=C/CSCCNC(=O)C[C@H]3CCCN3C2=O)c1 [C3-X37-L4] |
| 90.5 | 68.7 | Cc1cccc(C[C@@H]2NC(=O)[C@@H](NC(=O)c3ccc(Cl)s3)CCCSCc3ccc(cc3)CSCCNC(=O)C[C@H]3CCCN3C2=O)c1 [C3-X37-L3] |
| 103.1 | 99.9 | COc1ccc(C[C@@H]2NC(=O)[C@@H](NC(=O)c3ccc(Cl)s3)CCCSCC(=O)CSCCNC(=O)C[C@H]3CCCN3C2=O)cc1 [C3-X33-L7] |
| 102.2 | 98.3 | O=C1C[C@H]2CCCN2C(=O)[C@H](Cc2ccc(C(F)(F)F)cc2)NC(=O)[C@@H](NC(=O)c2ccc(Cl)s2)CCCSCc2cccc(n2)CSCCN1 [C3-X36-L1] |
| 84.8 | 58.3 | Cc1cccc(C[C@@H]2NC(=O)[C@@H](NC(=O)c3ccc(Cl)s3)CCCSCC(=O)CSCCNC(=O)C[C@H]3CCCN3C2=O)c1 [C3-X37-L7] |
| 103.1 | 94.9 | O=C1C[C@H]2CCCN2C(=O)[C@H](Cc2ccc(Cl)cc2)NC(=O)[C@@H](NC(=O)c2ccc(Cl)s2)CCCSCc2cccc(c2)CSCCN1 [C3-X34-L5] |
| 101.9 | 98.7 | O=C1C[C@H]2CCCN2C(=O)[C@H](Cc2ccc(C(F)(F)F)cc2)NC(=O)[C@@H](NC(=O)c2ccc(Cl)s2)CCCSCc2ccc(cc2)CSCCN1 [C3-X36-L3] |
| 106.2 | 106.1 | O=C1C[C@H]2CCCN2C(=O)[C@H](Cc2ccc(C(F)(F)F)cc2)NC(=O)[C@@H](NC(=O)c2ccc(Cl)s2)CCSCc2cccc(c2)CSCCN1 [C2-X36-L5] |
| 106.0 | 96.7 | N#Cc1ccc(C[C@@H]2NC(=O)[C@@H](NC(=O)c3ccc(Cl)s3)CCCSCCS(=O)(=O)CCSCCNC(=O)C[C@H]3CCCN3C2=O)cc1 [C3-X35-L2] |
| 103.6 | 102.0 | O=C1C[C@H]2CCCN2C(=O)[C@H](Cc2ccc(C(F)(F)F)cc2)NC(=O)[C@@H](NC(=O)c2ccc(Cl)s2)CCCSC/C=C/CSCCN1 [C3-X36-L4] |
| 96.5 | 93.5 | N#Cc1ccc(C[C@@H]2NC(=O)[C@@H](NC(=O)c3ccc(Cl)s3)CCCSCc3ccccc3CSCCNC(=O)C[C@H]3CCCN3C2=O)cc1 [C3-X35-L6] |

The remaining lines, values behind:

| SMILES | Residual thrombin activity: Top sample | Residual thrombin activity: Equilibrated sample |
| --- | --- | --- |
| Cc1cccc(C[C@@H]2NC(=O)[C@@H](NC(=O)c3ccc(Cl)s3)CSCc3ccccc3CSCCNC(=O)C[C@H]3CCCN3C2=O)c1 [C1-X37-L6] | 93.2 | 84.4 |
| O=C1C[C@H]2CCCN2C(=O)[C@@H](Cc2ccccc2)NC(=O)[C@@H](NC(=O)c2ccc(Cl)s2)CSCc2cccc(n2)CSCCN1 [C1-X31-L1] | 89.8 | 93.2 |
| O=C1CSCCNC(=O)C[C@H]2CCCN2C(=O)[C@@H](Cc2ccccc2)NC(=O)[C@@H](NC(=O)c2ccc(Cl)s2)CCSC1 [C2-X31-L7] | 102.6 | 101.7 |
| O=C1C[C@H]2CCCN2C(=O)[C@H](Cc2ccc(C(F)(F)F)cc2)NC(=O)[C@@H](NC(=O)c2ccc(Cl)s2)CCSCc2cccc(n2)CSCCN1 [C2-X36-L1] | 95.5 | 97.7 |
| COc1ccc(C[C@@H]2NC(=O)[C@@H](NC(=O)c3ccc(Cl)s3)CSC/C=C/CSCCNC(=O)C[C@H]3CCCN3C2=O)cc1 [C1-X33-L4] | 95.0 | 98.0 |
| O=C1C[C@H]2CCCN2C(=O)[C@@H](Cc2ccccc2)NC(=O)[C@@H](NC(=O)c2ccc(Cl)s2)CCSCc2ccccc2CSCCN1 [C2-X31-L6] | 92.4 | 88.8 |
| O=C1C[C@H]2CCCN2C(=O)[C@H](Cc2ccc(C(F)(F)F)cc2)NC(=O)[C@@H](NC(=O)c2ccc(Cl)s2)CSCCS(=O)(=O)CCSCCN1 [C1-X36-L2] | 99.0 | 102.5 |
| O=C1C[C@H]2CCCN2C(=O)[C@H](Cc2ccccc2)NC(=O)[C@@H](NC(=O)c2ccc(Cl)s2)CSC/C=C/CSCCN1 [C1-X5-L4] | 53.7 | 31.7 |
| O=C1C[C@H]2CCCN2C(=O)[C@@H](Cc2ccccc2)NC(=O)[C@@H](NC(=O)c2ccc(Cl)s2)CSC/C=C/CSCCN1 [C1-X31-L4] | 96.8 | 93.6 |
| O=C1C[C@H]2CCCN2C(=O)[C@H](Cc2ccccc2)NC(=O)[C@@H](NC(=O)c2ccc(Cl)s2)CCSCc2cccc(n2)CSCCN1 [C2-X5-L1] | 56.1 | 37.8 |
| CN1C(=O)[C@@H](NC(=O)c2ccc(Cl)s2)CCSC/C=C/CSCCNC(=O)C[C@H]2CCCN2C(=O)[C@@H]1Cc1ccccc1 [C2-X32-L4] | 99.0 | 101.4 |
| N#Cc1ccc(C[C@@H]2NC(=O)[C@@H](NC(=O)c3ccc(Cl)s3)CSCc3ccc(cc3)CSCCNC(=O)C[C@H]3CCCN3C2=O)cc1 [C1-X35-L3] | 94.1 | 100.0 |
| O=C1C[C@H]2CCCN2C(=O)[C@H](Cc2ccc(Cl)cc2)NC(=O)[C@@H](NC(=O)c2ccc(Cl)s2)CSCc2cccc(n2)CSCCN1 [C1-X34-L1] | 93.9 | 92.0 |
| O=C1C[C@H]2CCCN2C(=O)[C@H](Cc2ccc(Cl)cc2)NC(=O)[C@@H](NC(=O)c2ccc(Cl)s2)CSCc2ccccc2CSCCN1 [C1-X34-L6] | 93.0 | 92.0 |
| O=C1C[C@H]2CCCN2C(=O)[C@H](Cc2ccc(C(F)(F)F)cc2)NC(=O)[C@@H](NC(=O)c2ccc(Cl)s2)CCSCc2ccc(cc2)CSCCN1 [C2-X36-L3] | 95.8 | 101.3 |
| N#Cc1ccc(C[C@@H]2NC(=O)[C@@H](NC(=O)c3ccc(Cl)s3)CSCc3cccc(n3)CSCCNC(=O)C[C@H]3CCCN3C2=O)cc1 [C1-X35-L1] | 91.5 | 92.1 |
| O=C1C[C@H]2CCCN2C(=O)[C@H](Cc2ccc(C(F)(F)F)cc2)NC(=O)[C@@H](NC(=O)c2ccc(Cl)s2)CSCc2cccc(c2)CSCCN1 [C1-X36-L5] | 101.6 | 104.5 |
| O=C1C[C@H]2CCCN2C(=O)[C@H](Cc2ccccc2)NC(=O)[C@@H](NC(=O)c2ccc(Cl)s2)CCSCc2cccc(c2)CSCCN1 [C2-X5-L5] | 90.5 | 54.8 |
| O=C1CSCCNC(=O)C[C@H]2CCCN2C(=O)[C@H](Cc2ccccc2)NC(=O)[C@@H](NC(=O)c2ccc(Cl)s2)CSC1 [C1-X5-L7] | 93.6 | 82.8 |
| O=C1C[C@H]2CCCN2C(=O)[C@H](Cc2ccccc2)NC(=O)[C@@H](NC(=O)c2ccc(Cl)s2)CSCc2ccccc2CSCCN1 [C1-X5-L6] | 82.2 | 60.8 |
